Tests used:
[1] = tested on: mice; experiment: Locomotor activity in motility chamber, mice; type: in vivo, mouse; settings: doses that exhibited positive effects in the TST, FIG. 11
[2] = molecular target: T1, mouse NET (Mus musculus, UniProt O55192); experiment: Competition binding against [3H]nisoxetine, mouse hippocampus tissue; settings: mouse brain tissue (hippocampus), FIG. 10F vs Table 2
T1 construct: from tissue; host or cells: mouse hippocampus
Protocol: (§1) FIGS. 10A-D contain graphs plotting activity levels (counts/6 minutes) for mice treated with the indicated compound at the indicated amount. […] Each group of mice included between three and seven mice. FIGS. 10F is a line graph plotting the competition binding of the indicated compound against [^3H]nisoxetine for mouse hippocampus tissue. FIGS. 10G is a line graph plotting the competition binding of the indicated compound against [^3H]citalopram for mouse cortex tissue. FIG. 10H is a bar graph plotting the duration of immobility (seconds) during a tail suspension test of mice intraperitoneally (ip) or per os (po; orally) treated with 5 mg/kg of the indicated compound. […] Each group of mice included between seven and nine mice.

[3] = molecular target: T2, mouse SERT (Mus musculus, UniProt Q60857); experiment: Competition binding against [3H]citalopram, mouse cortex tissue; settings: mouse brain tissue (cortex), FIG. 10G vs Table 2
T2 construct: from tissue; host or cells: mouse cortex
Protocol: as §1

T2 sequence (Q60857 whole entry): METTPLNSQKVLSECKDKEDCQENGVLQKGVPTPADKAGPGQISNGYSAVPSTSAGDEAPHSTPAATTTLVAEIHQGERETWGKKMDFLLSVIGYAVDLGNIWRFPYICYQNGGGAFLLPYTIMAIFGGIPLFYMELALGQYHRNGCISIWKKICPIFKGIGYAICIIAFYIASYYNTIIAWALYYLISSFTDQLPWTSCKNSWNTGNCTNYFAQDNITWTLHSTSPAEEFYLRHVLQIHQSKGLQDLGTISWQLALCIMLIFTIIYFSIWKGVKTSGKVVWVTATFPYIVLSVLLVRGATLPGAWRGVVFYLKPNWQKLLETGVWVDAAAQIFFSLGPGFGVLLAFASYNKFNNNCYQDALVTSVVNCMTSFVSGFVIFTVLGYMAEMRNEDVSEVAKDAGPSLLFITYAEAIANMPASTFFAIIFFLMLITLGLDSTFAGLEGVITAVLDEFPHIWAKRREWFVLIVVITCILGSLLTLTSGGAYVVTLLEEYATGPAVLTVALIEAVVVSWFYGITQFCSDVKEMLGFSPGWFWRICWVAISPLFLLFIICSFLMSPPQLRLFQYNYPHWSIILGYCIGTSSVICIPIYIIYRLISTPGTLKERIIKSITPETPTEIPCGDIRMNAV
T1 sequence (O55192 whole entry): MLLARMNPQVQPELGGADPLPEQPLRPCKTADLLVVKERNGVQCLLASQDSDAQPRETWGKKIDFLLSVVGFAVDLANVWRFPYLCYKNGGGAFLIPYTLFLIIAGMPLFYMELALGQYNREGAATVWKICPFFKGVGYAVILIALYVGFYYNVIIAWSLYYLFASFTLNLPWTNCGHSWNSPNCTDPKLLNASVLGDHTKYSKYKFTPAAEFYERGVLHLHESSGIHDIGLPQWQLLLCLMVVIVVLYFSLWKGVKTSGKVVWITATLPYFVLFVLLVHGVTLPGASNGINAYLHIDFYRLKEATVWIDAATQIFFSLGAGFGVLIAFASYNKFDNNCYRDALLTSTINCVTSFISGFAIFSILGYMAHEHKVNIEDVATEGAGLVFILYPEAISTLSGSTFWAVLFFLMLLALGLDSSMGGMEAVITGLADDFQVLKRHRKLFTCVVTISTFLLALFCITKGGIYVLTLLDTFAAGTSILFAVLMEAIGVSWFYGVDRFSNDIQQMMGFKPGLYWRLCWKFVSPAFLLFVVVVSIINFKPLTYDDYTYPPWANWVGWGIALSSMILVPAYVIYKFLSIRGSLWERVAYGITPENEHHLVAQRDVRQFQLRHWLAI

Compound: CNC[C@H](c1ccc2ccccc2c1)[C@@H](F)c1ccccc1 [MCJ001-F-RS, (2S,3R)-3-fluoro-N-methyl-2-(naphthalen-2-yl)-3-phenylpropan-1-amine]
- Effect on locomotor activity [1]: Only d-amphetamine caused a significant effect on locomotor activity

Compound: CNC[C@H](c1ccc2ccccc2c1)[C@H](OC)c1ccccc1 [MCJ001-OMe-SS, (2S,3S)-3-methoxy-N-methyl-2-(naphthalen-2-yl)-3-phenylpropan-1-amine]
- Effect on locomotor activity [1]: Only d-amphetamine caused a significant effect on locomotor activity

Compound: CN(C)C[C@H](c1ccc2ccccc2c1)[C@H](N)c1ccccc1 [MCJ002-NH2-SS, (2S,3S)-N1,N1-dimethyl-2-(naphthalen-2-yl)-3-phenylpropane-1,3-diamine]
- Potency at mouse NET as compared to potency at human NET [2]: 10 fold weaker
- Potency at mouse SERT as compared to human SERT [3]: about the same potency at mouse SERT
